Where “and” joins values, the source holds several entries; their conditions need not be identical. Equal values may be shown once. Read-outs that look alike come from different tables or passages of the source.
Assays:
Assay in all cases: Inside-out patch-clamp inhibition of CFTR current by Inh-172
Assay type in all cases: cell-based
[1] = biological target: T1, h-pTMD2-h-CFTR (human CFTR with pig CFTR's TMD2) (Homo sapiens, UniProt P13569, A1009S/A789T/A797V/A842T/E1221D/E815D/F931L/G885K/H897K/H950R/I1005V/I1226V/I853V/I869V/I982V/INS1173D/K1174Q/K1177R/K830R/L805I/L889P/M1028L/M837V/M929L/N1184D/N782S/N886K/P888S/Q1012K/Q1035H/R1128T/R899A/S1196Q/S877C/S898G/S912A/T1171A/T1176N/T1179F/T1220V/T788A/T925G/V1017L/V1056I/V794M/W882C/Y1182S); conditions: for inhibition at 0.5 µM: 500 nM Inh-172; for inhibition at 1 µM: 1000 nM Inh-172; for inhibition at 10 µM: 10000 nM Inh-172
T1 construct: expressed in transfected cells; host or cells: CHO cells, pcDNA plasmid
Procedure: (§1) CHO cells were grown at 37 °C in Dulbecco’s modified Eagle’s medium supplemented with 10% (vol/vol) fetal bovine serum (Sigma-Aldrich, St. Louis, MO). pcDNA plasmids carrying the desired CFTR construct were transfected to CHO cells using PolyFect transfection reagent (Qiagen, Hilden, Germany) together with green fluorescence protein (GFP) cDNA (pEGFP-C3, Takara Bio, Shiga, Japan) that helps identify expression of CFTR. Cells were first incubated with the transfection reagents at 37 °C for 6-12 hours on sterile glass chips in 35-mm tissue culture dishes before transferred to 27 °C for incubation for 2–7 days. Primers for mutations were ordered from Integrated DNA Technologies (Coralville, IA) and were summarized in Supplementary Data. All CFTR mutants were prepared with QuikChange XL kit (Agilent, Santa Clara, CA) and sequenced at the DNA Core facility at University of Missouri-Columbia.
(§2) Patch-clamp pipettes were made from borosilicate capillary glass using a two-stage vertical puller (PP-81; Narishige, Amityville, NY). The pipette tips were fire polished with a homemade microforge to yield a pipette resistance of 2–5 MΩ when filled with a pipette solution containing (in mM): 140 NMDG-Cl (N-methyl-D-glucamine-chloride), 5 CaCl2, 2 MgCl2, and 10 HEPES, pH 7.4. For recordings, transfected cells on glass chips were transferred into a continuously perfused chamber on the stage of an inverted microscope (IX51; Olympus, Tokyo, Japan) with the perfusing solution containing (in mM): 150 NMDG-Cl, 2 MgCl2, 10 EGTA, 8 Tris, and 10 HEPES, pH 7.4. The membrane patch was excised to an inside-out configuration with a seal resistance >40 GΩ. CFTR currents were recorded with an amplifier (EPC9; HEKA, Holliston, MA), filtered through an eight-pole Bessel filter (LPF-8; Warner Instruments, Hamden, CT) at 100 Hz and digitized to a computer at a sampling rate of 500 Hz with Pulse software (version 8.53; HEKA). The membrane potential was held at −30 mV. Solution exchange was achieved by a fast solution change system (SF-77B; Warner Instruments). Inh-172 was obtained from the CFTR Chemical Compound Program supported by the Cystic Fibrosis Foundation. All experiments were performed at room temperature.
(§3) The steady state mean currents were measured in the Igor Pro software (version 8.0; WaveMetrics). The mean baseline currents were subtracted from the steady state mean currents before the data were used to determine the degrees of inhibition. The degrees of inhibition by CFTR inhibitor 172 were calculated based on the equation:1 %inhibition=1−IInh−172/I0X100% where I0 and Iinh−172 represent uninhibited and inhibited currents, respectively. The IC50 and Hill coefficients were obtained by fitting percent inhibition as a function of [Inh-172] with the Hill equation:2 %inhibition=base+(max−base)/1+xhalf/x^rate where max and base represent the […] percent inhibition by Inh-172, x represents the concentration of Inh-172, and the rate is the Hill coefficient. The estimated IC50 (xhalf) and Hill coefficients are listed in Table 1 as mean ± standard deviation. Each patch-clamp recording was made from a separate cell.

T1142I-CFTR = biological target: T2, T1142I-CFTR (Homo sapiens, UniProt P13569, T1142I); conditions: for inhibition at 0.1 µM: 100 nM Inh-172; for inhibition at 0.5 µM: 500 nM Inh-172; for inhibition at 1 µM: 1000 nM Inh-172; for inhibition at 5 µM: 5000 nM Inh-172; for inhibition at 10 µM: 10000 nM Inh-172
T2 construct: expressed in transfected cells; host or cells: CHO cells, pcDNA plasmid
Procedure: as §1, §2, §3

[2] = biological target: T3, h-pTMD1-h-CFTR (human CFTR with pig CFTR's TMD1) (Homo sapiens, UniProt P13569, A209T/D426N/E115A/E407K/F315L/F87I/G228A/I125V/I215L/I231V/I328L/I332M/L145P/N418S/N445S/P41S/Q39H/R242K/S256N/T421I/V11I/V12F/V43S)
T3 construct: expressed in transfected cells; host or cells: CHO cells, pcDNA plasmid
Procedure: as §1, §2, §3

K95A-CFTR = biological target: T4, K95A-CFTR (Homo sapiens, UniProt P13569, K95A)
T4 construct: expressed in transfected cells; host or cells: CHO cells, pcDNA plasmid
Procedure: as §1, §2, §3

[3] = 100 nM Inh-172, read-out: percent inhibition of current, Mean
[4] = read-out: percent inhibition of current, Mean
[5] = read-out: percent inhibition of current, individual cell
[6] = 5000 nM Inh-172, read-out: percent inhibition of current, Mean
[7] = 500 nM Inh-172, read-out: percent inhibition of current, Mean
[8] = 1000 nM Inh-172, read-out: percent inhibition of current, Mean
[9] = 1000 nM Inh-172, read-out: percent inhibition of current, individual cell
[10] = 10000 nM Inh-172, read-out: percent inhibition of current, Mean
[11] = 10000 nM Inh-172, read-out: percent inhibition of current, individual cell

T4 sequence (P13569 whole entry K95A): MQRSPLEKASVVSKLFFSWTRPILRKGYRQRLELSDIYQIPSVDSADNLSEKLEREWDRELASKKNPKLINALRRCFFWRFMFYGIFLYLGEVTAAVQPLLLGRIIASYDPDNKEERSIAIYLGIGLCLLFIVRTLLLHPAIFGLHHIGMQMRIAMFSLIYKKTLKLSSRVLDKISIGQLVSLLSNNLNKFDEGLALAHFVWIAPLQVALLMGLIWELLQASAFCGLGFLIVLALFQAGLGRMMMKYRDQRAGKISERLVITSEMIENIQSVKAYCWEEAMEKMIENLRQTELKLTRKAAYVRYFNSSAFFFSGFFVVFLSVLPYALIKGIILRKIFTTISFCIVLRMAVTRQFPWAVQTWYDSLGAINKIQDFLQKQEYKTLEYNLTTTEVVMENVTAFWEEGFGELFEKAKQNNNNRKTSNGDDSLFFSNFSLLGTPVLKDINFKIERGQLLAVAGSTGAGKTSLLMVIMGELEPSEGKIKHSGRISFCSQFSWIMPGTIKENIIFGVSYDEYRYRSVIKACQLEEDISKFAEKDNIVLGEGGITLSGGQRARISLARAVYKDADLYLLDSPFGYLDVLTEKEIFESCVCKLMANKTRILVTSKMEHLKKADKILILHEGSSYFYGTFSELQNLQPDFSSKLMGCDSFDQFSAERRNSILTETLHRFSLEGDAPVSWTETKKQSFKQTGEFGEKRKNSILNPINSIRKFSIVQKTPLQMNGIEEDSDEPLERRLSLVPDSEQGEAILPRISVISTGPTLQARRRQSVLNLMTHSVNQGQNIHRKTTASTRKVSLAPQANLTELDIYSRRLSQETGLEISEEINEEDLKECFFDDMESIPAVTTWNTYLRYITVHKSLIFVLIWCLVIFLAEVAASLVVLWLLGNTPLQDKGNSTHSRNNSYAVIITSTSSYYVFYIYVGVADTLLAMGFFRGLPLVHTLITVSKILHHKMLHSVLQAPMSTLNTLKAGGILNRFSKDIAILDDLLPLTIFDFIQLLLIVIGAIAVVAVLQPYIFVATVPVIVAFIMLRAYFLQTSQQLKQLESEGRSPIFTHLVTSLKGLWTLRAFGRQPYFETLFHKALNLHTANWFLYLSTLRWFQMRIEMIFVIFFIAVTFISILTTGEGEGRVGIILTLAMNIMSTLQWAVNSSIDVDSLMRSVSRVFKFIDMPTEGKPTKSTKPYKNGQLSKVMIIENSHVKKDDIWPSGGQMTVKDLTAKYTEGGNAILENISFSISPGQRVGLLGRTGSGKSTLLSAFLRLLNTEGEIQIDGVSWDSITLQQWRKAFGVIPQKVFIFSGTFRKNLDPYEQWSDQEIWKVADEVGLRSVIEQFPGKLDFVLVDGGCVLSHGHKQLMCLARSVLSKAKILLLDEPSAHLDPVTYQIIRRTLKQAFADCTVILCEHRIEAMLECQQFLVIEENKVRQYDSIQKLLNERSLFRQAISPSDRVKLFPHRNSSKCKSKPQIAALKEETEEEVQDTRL
T1 sequence (P13569 with tags, fused parts or gaps with the stated changes): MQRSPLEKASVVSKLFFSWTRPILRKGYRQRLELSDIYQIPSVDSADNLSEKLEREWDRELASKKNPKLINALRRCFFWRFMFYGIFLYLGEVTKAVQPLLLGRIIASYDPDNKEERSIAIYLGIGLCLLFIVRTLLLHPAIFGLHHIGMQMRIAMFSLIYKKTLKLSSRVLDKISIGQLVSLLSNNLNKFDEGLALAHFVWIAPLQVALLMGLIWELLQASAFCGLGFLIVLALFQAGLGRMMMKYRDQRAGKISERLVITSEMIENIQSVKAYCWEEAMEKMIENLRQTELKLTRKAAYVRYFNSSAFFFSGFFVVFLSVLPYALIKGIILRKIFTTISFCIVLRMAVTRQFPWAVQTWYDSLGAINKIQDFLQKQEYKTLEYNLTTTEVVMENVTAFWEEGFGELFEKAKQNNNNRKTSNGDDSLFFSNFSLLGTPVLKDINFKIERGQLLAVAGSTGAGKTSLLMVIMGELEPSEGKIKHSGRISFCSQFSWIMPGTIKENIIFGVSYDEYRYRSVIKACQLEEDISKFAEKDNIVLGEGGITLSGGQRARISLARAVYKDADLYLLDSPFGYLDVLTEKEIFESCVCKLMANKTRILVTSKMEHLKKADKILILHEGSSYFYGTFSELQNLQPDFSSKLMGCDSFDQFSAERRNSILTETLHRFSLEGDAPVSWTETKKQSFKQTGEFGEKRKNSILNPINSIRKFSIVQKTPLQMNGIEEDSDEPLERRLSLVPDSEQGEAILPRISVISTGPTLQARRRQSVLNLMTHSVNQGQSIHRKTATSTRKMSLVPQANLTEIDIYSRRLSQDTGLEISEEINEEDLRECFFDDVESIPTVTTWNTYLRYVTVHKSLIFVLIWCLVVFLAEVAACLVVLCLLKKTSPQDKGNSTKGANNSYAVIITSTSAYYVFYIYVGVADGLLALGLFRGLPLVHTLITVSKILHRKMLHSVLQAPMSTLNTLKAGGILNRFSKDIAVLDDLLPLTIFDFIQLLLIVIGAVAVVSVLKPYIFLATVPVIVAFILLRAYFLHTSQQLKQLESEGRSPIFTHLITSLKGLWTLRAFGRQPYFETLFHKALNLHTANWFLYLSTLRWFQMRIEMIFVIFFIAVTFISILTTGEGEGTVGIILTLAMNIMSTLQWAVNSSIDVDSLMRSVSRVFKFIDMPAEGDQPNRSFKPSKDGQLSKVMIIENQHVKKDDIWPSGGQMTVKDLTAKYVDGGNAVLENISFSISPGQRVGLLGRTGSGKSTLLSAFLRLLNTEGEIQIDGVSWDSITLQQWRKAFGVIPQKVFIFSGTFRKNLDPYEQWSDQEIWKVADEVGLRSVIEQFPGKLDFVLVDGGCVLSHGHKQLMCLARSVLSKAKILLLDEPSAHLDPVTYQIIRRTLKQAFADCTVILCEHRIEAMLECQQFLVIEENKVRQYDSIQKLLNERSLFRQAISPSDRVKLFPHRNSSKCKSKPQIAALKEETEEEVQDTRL
T3 sequence (P13569 1-1480 with the stated changes): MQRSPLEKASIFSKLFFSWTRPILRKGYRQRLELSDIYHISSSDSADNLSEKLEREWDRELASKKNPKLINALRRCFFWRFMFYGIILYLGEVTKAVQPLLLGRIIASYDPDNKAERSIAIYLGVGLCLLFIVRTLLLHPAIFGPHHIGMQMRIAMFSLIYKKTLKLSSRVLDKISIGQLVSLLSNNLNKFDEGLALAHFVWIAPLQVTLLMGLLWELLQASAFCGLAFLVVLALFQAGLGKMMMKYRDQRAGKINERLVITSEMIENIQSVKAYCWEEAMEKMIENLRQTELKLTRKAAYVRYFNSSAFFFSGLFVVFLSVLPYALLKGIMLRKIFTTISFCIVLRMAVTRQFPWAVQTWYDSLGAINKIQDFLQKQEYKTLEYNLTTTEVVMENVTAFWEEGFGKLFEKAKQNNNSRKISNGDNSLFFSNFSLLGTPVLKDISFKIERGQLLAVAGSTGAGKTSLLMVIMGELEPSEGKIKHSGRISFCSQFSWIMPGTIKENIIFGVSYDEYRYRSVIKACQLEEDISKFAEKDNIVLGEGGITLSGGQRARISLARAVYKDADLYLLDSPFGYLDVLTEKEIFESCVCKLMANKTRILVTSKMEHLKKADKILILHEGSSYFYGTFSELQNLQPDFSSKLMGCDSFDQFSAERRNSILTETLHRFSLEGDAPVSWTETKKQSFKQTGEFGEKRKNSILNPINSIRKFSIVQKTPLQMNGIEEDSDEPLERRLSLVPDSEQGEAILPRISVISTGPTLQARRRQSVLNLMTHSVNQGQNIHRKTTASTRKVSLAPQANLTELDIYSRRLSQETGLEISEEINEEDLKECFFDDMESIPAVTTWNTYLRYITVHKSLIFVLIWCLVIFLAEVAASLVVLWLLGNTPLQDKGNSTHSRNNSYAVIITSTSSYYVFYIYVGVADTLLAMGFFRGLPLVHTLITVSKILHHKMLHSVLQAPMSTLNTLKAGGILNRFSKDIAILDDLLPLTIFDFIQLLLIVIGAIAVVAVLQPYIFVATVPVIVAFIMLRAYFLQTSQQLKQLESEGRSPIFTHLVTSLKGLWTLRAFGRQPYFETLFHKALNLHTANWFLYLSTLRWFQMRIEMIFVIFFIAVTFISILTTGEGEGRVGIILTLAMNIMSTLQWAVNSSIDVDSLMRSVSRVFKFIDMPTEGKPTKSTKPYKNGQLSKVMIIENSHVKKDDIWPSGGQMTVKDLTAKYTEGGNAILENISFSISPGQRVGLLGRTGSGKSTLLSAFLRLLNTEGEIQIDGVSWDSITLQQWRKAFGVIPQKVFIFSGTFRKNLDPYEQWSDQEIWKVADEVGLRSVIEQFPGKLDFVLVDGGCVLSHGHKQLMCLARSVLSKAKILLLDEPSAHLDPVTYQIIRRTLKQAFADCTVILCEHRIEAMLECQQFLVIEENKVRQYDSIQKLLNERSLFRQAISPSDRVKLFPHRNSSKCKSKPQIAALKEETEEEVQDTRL
T2 sequence (P13569 whole entry T1142I): as the sequence (P13569 whole entry K95A) above, with A95K, T1142I counted along it

`O=C(O)c1ccc(/C=C2\SC(=S)N(c3cccc(C(F)(F)F)c3)C2=O)cc1` [Inh-172, CFTRinh-172] showed an inhibition at 0.1 µM [1, 3] of 6.8%, an inhibition at 0.5 µM [1, 4] of 18.8% and an inhibition at 0.5 µM [1, 5] of 15%. For the same compound, the inhibition at 1 µM [1, 4] was 28.5%, the inhibition at 1 µM [1, 5] was 22% and the inhibition at 5 µM [1, 6] was 56.5%. For the same compound, the inhibition at 10 µM [1, 4] was 62.7%, the inhibition at 10 µM [1, 5] was 68% and the “Hill Coefficient” value ([1]; h-pTMD2-h) was 0.69 ± 0.04. For the same compound, the IC50 ([1]; h-pTMD2-h) was 4.02 ± 0.28 µM, the IC50 ([1]; human CFTR with pig TMD2, earlier manuscript version, peer review file) was 4.02 µM and the inhibition at 0.1 µM (T1142I-CFTR; [4]) was 7.2%. For the same compound, the inhibition at 0.1 µM (T1142I-CFTR; [5]) was 5%, the inhibition at 0.5 µM (T1142I-CFTR; [4]) was 22.5% and the inhibition at 0.5 µM (T1142I-CFTR; [5]) was 22%. It also gave an inhibition at 1 µM (T1142I-CFTR; [4]) of 39.3%, an inhibition at 1 µM (T1142I-CFTR; [5]) of 38% and an inhibition at 5 µM (T1142I-CFTR; [4]) of 78.3%. For the same compound, the inhibition at 5 µM (T1142I-CFTR; [5]) was 78%, the inhibition at 10 µM (T1142I-CFTR; [4]) was 90.7% and the inhibition at 10 µM (T1142I-CFTR; [5]) was 90%. The “Hill Coefficient” value (T1142I-CFTR; T1142I) was 1.12 ± 0.05, the IC50 (T1142I-CFTR; T1142I) was 1.49 ± 0.07 µM and the “percent inhibition of current, individual cell” value (“percent inhibition of current” for short) ([2]; 50 nM Inh-172) was 45.0 and 25.0. For the same compound, the inhibition at 0.05 µM ([2]; 50 nM Inh-172, read-out: percent inhibition of current, Mean) was 35.8%, the inhibition at 0.05 µM ([2]; 50 nM Inh-172, read-out: percent inhibition of current, individual cell) was 34% and the “percent inhibition of current” value ([2]; 100 nM Inh-172) was 51.0 and 37.0 and 50.0. For the same compound, the inhibition at 0.1 µM [2, 3] was 44.3%, the inhibition at 0.1 µM ([2]; 100 nM Inh-172, read-out: percent inhibition of current, individual cell) was 39% and the “percent inhibition of current” value ([2]; 500 nM Inh-172) was 86.0 and 76.0. For the same compound, the inhibition at 0.5 µM [2, 7] was 81.8%, the inhibition at 0.5 µM ([2]; 500 nM Inh-172, read-out: percent inhibition of current, individual cell) was 79% and the “percent inhibition of current” value ([2]; 1000 nM Inh-172) was 94.0 and 89.0. For the same compound, the inhibition at 1 µM [2, 8] was 92%, the inhibition at 1 µM [2, 9] was 91% and the “percent inhibition of current” value ([2]; 10000 nM Inh-172) was 100.0. The inhibition at 10 µM [2, 10] was 99.8%, the inhibition at 10 µM [2, 11] was 99% and the “Hill Coefficient” value ([2]; h-pTMD1-h) was 0.98 ± 0.10. For the same compound, the IC50 ([2]; h-pTMD1-h) was 0.11 ± 0.01 µM, the “percent inhibition of current” value (K95A-CFTR; 100 nM Inh-172) was 10.0 and 13.0 and 19.0 and 9.0 and 7.0 and 15.0 and the inhibition at 0.1 µM (K95A-CFTR; [3]) was 12.2%. For the same compound, the inhibition at 0.5 µM (K95A-CFTR; 0.5 µM Inh-172, read-out: K95A-CFTR current inhibited) was ~40%, the “percent inhibition of current” value (K95A-CFTR; 500 nM Inh-172) was 23.0 and 38.0 and 46.0 and 31.0 and 29.0 and 42.0 and the inhibition at 0.5 µM (K95A-CFTR; [7]) was 34.8%. For the same compound, the “percent inhibition of current” value (K95A-CFTR; 1000 nM Inh-172) was 58.0 and 62.0 and 47.0 and 59.0, the inhibition at 1 µM (K95A-CFTR; [8]) was 55.8% and the inhibition at 1 µM (K95A-CFTR; [9]) was 51%. For the same compound, the “percent inhibition of current” value (K95A-CFTR; 5000 nM Inh-172) was 88.0 and 84.0 and 81.0 and 85.0, the inhibition at 5 µM (K95A-CFTR; [6]) was 84.2% and the inhibition at 5 µM (K95A-CFTR; 5000 nM Inh-172, read-out: percent inhibition of current, individual cell) was 78%. For the same compound, the “percent inhibition of current” value (K95A-CFTR; 10000 nM Inh-172) was 95.0 and 94.0 and 93.0 and 90.0, the inhibition at 10 µM (K95A-CFTR; [10]) was 92.3% and the inhibition at 10 µM (K95A-CFTR; [11]) was 89%. The “Hill Coefficient” value (K95A-CFTR; K95A) was 0.98 ± 0.05, the IC50 (K95A-CFTR; K95A) was 0.85 ± 0.05 µM and the IC50 (K95A-CFTR; K95A, earlier manuscript version, peer review file) was 0.852 µM. The “increase of IC50 by K95A mutation vs WT” value (K95A-CFTR; cho cells inside-out patch) was 10 fold.

— article PMC11303713, “Allosteric inhibition of CFTR gating by CFTRinh-172 binding in the pore” (Nature Communications, 2024)
